In US5426104A, “Tricyclic carbapenem compounds, methods of preparation and methods of use” (Glaxo SpA, priority 1991, dated 1995) one finds MIC and adverse effects data, which are given here for two molecules.

The subject of one data set is E coli 1852E. The settings on record: 18 h.
The test system of another data set is S aureus 663E. As to the kind of experiment: standard microtiter broth serial dilution test, S aureus 663E. The note with it: 18 h.
The next data set relates to E cloacae 3647. Description: standard microtiter broth serial dilution test, E cloacae 3647. The note with it: 18 h.
The test system of a further data set is S faecalis 850E. As to the kind of experiment: standard microtiter broth serial dilution test, S faecalis 850E. The note with it: 18 h.
A further data set concerns B fragilis 2017E. As to the kind of experiment: standard microtiter broth serial dilution test, B fragilis 2017E. The note with it: 18 h.
The test system of a further data set is P aeruginosa 1911E. Description: standard microtiter broth serial dilution test, P aeruginosa 1911E. The settings on record: 18 h.
Data set [1] in a line: intravenous administration to the mouse, adverse effects. The class given is in vivo. The settings on record: 500 mg/kg intravenously. From the text: (§1) The compounds of the invention are essentially non-toxic at therapeutically useful doses.
Data set [2] can be described thus: intravenous administration to the rat, adverse effects. The note with it: 500 mg/kg intravenously. In kind it is in vivo.
Text: as §1

Converted amounts (≈) assume the structure as drawn.

Method for B fragilis 2017E: (§2) For example the antibacterial activity of the compounds of the invention was determined using a standard microtiter broth serial dilution test. In this test the broth was incubated with approximately 10^5 colony forming units of the test organism and incubated at 35° for 18 hours in the presence of test compound.
Method for E cloacae 3647: as §2
Method for E coli 1852E: as §2
Method for P aeruginosa 1911E: as §2
Method for S aureus 663E: as §2
Method for S faecalis 850E: as §2

By MIC is commonly meant the smallest concentration in the dilution series that meets the test's criterion for growth inhibition. `CN=CN[C@H]1CCC[C@H]2C1=C(C(=O)O)N1C(=O)[C@H]([C@@H](C)O)[C@@H]21` [Example 2, (4 S,8S,9R,10S,12R)-4-[(3'-methyl)formamidino)-10-(1-hydroxyethyl)-11-oxo-1-azatricyclo[7.2.0.0^3.^8]undec-2-ene-2-carboxylic acid]: the MIC turned out to be 2 µg/mL (≈ 6.51 µM) against E coli 1852E; 0.1 µg/mL (≈ 0.325 µM) with S aureus 663E; 4 µg/mL (≈ 13 µM) against E cloacae 3647; 16 µg/mL (≈ 52.1 µM) against S faecalis 850E; 0.5 µg/mL (≈ 1.63 µM) in the data set with B fragilis 2017E; 16 µg/mL (≈ 52.1 µM) against P aeruginosa 1911E.
With `C[C@@H](O)[C@H]1C(=O)N2C(C(=O)O)=C3[C@H](CCC[C@@H]3N(C)C=N)[C@H]12` [Example 1, (4S,8S,9R,10S,12R)-4-(N-methylformamidino)-10-(1-hydroxyethyl)-11-oxo-1-azatricyclo[7.2.0.0^3.^8]undec-2-ene-2-carboxylic acid], the adverse effects entry in data set [1] and in data set [2] was “no adverse effects were observed” each time. Further, the MIC was 0.5 µg/mL (≈ 1.63 µM) against E coli 1852E; 0.1 µg/mL (≈ 0.325 µM) in the data set with S aureus 663E; 1 µg/mL (≈ 3.25 µM) in the data set with E cloacae 3647; 1 µg/mL (≈ 3.25 µM) with S faecalis 850E; 0.2 µg/mL (≈ 0.651 µM) in the data set with B fragilis 2017E; 8 µg/mL (≈ 26 µM) against P aeruginosa 1911E.
